Data on 19 compounds can be found in patent publication US12404304B1, “Telomerase reverse transcriptase (TERT) expression enhancing compounds and methods for using the same” (Sierra Sciences, LLC, priority 2007, dated 2025).

Data set [1] relates to human TERT expression (hTERT mRNA). The data set can be described thus: Quantitative real-time RT-PCR of hTERT mRNA expression (Ct, transcripts) in compound-treated cells. The format is cell-based. The method in brief:
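Read-out is cycle threshold, the cycle at which probe fluorescence released by Taq 5′-nuclease activity crosses a set level; Ct falls as hTERT mRNA rises. cDNA of treated and untreated cells was compared, with starting transcripts quantified against a known-cDNA standard curve.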

For a further data set, the system named is viable cells in culture. The data set is described as follows: Cell viability assay (CellTiter-Glo Luminescent Cell Viability Assay, ATP quantitation, percent of vehicle control).

For the compound `COC(=O)COc1ccc(NC(=O)c2ccc(F)cc2)cc1` [compound 1414], the “Average Number of hTERT Transcripts” value in data set [1] was found to be 203.88. The “Average Cell Viability after 24 Hours (% DMSO)” value with viable cells in culture turned out to be 69.42 % DMSO.

In the case of `COC(=O)COc1ccc(S(=O)(=O)N(C)Cc2ccccc2)cc1` [compound 1415], the “Average Number of hTERT Transcripts” value in data set [1] amounted to 30.51. In addition, the “Average Cell Viability after 24 Hours (% DMSO)” value in the data set with viable cells in culture is listed as 79.96 % DMSO.

As for `COc1ccc(OC)c(N(C(=O)Cc2ccccc2)c2nc(-c3ccc(C)cc3)c(C)s2)c1` [compound 1416], the “Average Number of hTERT Transcripts” value in data set [1] was found to be 15.42. The “Average Cell Viability after 24 Hours (% DMSO)” value with viable cells in culture stood at 95.26 % DMSO.

Consider `COc1ccc(C(=O)NC(=S)Nc2ccc(Nc3ccccc3)cc2)cc1Br` [compound 1417], for which the “Average Number of hTERT Transcripts” value in data set [1] stood at 5.13. In the data set on viable cells in culture, the “Average Cell Viability after 24 Hours (% DMSO)” value was found to be 92.17 % DMSO.

For the compound `O=C(NC(=S)Nc1cc([N+](=O)[O-])ccc1O)c1ccc(Br)o1` [compound 1418], the “Average Number of hTERT Transcripts” value in data set [1] was found to be 42.80. In the data set with viable cells in culture, the “Average Cell Viability after 24 Hours (% DMSO)” value was 94.19 % DMSO.

For `CCC(=O)NC(=S)Nc1ccccc1C#N` [compound 1419], the “Average Number of hTERT Transcripts” value in data set [1] was 5.40. Further, the “Average Cell Viability after 24 Hours (% DMSO)” value with viable cells in culture came out at 87.51 % DMSO.

As to `Cc1cc(C)c(S(=O)(=O)Nc2ccccc2C(=O)NCCc2ccccc2)c(C)c1` [compound 1420], the “Average Number of hTERT Transcripts” value in data set [1] is 57.36. Also, the “Average Cell Viability after 24 Hours (% DMSO)” value in the data set on viable cells in culture was 73.35 % DMSO.

Turning to `COc1ccc(S(=O)(=O)N(CC(=O)NC2CC3CCC2C3)c2ccccc2)cc1OC` (centres unmarked) [compound 1421], the “Average Number of hTERT Transcripts” value in data set [1] worked out at 6.96. Moreover, the “Average Cell Viability after 24 Hours (% DMSO)” value in the data set on viable cells in culture came out at 104.42 % DMSO.

In the case of `CC1CCN(C(=S)NC(=O)c2sc3ccccc3c2Cl)CC1` [compound 1422], in data set [1], the “Average Number of hTERT Transcripts” value came out at 19.95. Also, the “Average Cell Viability after 24 Hours (% DMSO)” value in the data set on viable cells in culture is reported as 102.65 % DMSO.

For the compound `Cc1ccc(S(=O)(=O)Nc2ccccc2C(=O)NCCc2ccccc2)cc1[N+](=O)[O-]` [compound 1424], the “Average Number of hTERT Transcripts” value in data set [1] stood at 37.45. In the data set on viable cells in culture, the “Average Cell Viability after 24 Hours (% DMSO)” value came out at 94.37 % DMSO.

In the case of `Cc1ccc2nc(-c3ccc(NC(=S)NC(=O)CCc4ccccc4)cc3)sc2c1` [compound 1425], the “Average Number of hTERT Transcripts” value in data set [1] worked out at 17.07. Further, the “Average Cell Viability after 24 Hours (% DMSO)” value with viable cells in culture stood at 79.15 % DMSO.

Consider `Cc1cccc(NC(=O)CSc2nnc(CNC(=O)c3ccc(Br)cc3)n2C)c1` [compound 1427], for which, in data set [1], the “Average Number of hTERT Transcripts” value stood at 5.16. For the same compound, the “Average Cell Viability after 24 Hours (% DMSO)” value in the data set with viable cells in culture is given as 107.40 % DMSO.

Consider `O=C(NCCc1ccccc1)c1ccc(NC(=O)C2(c3ccccc3)CCCC2)cc1` [compound 1428], for which, in data set [1], the “Average Number of hTERT Transcripts” value is 7.81. The “Average Cell Viability after 24 Hours (% DMSO)” value in the data set on viable cells in culture came out at 92.20 % DMSO.

Take `O=C(Cn1c(=O)oc2ccccc21)Nc1cc(Cl)ccc1Cl` [compound 1429]: the “Average Number of hTERT Transcripts” value in data set [1] was 13.70. Moreover, the “Average Cell Viability after 24 Hours (% DMSO)” value in the data set with viable cells in culture worked out at 83.97 % DMSO.

With `O=C(NCC1COc2ccccc2O1)c1ccc(NC(=O)C2COc3ccccc3O2)cc1` (centres unmarked) [compound 1430], the “Average Number of hTERT Transcripts” value in data set [1] is listed as 23.55. Also, the “Average Cell Viability after 24 Hours (% DMSO)” value in the data set on viable cells in culture is on record as 88.00 % DMSO.

Consider `CCC(C)NS(=O)(=O)c1ccc(NC(=O)CN2C(=O)c3ccccc3C2=O)cc1` (centres unmarked) [compound 1431], for which the “Average Number of hTERT Transcripts” value in data set [1] is given as 9.12. Moreover, the “Average Cell Viability after 24 Hours (% DMSO)” value in the data set on viable cells in culture came to 100.20 % DMSO.

As for `CCC(=O)Oc1cccc2ccc(/C=C/c3ccccc3Cl)nc12` [compound 1432], the “Average Number of hTERT Transcripts” value in data set [1] came out at 19.46. In addition, the “Average Cell Viability after 24 Hours (% DMSO)” value in the data set with viable cells in culture was determined as 86.95 % DMSO.

For `Cc1ccc(NS(=O)(=O)c2ccc(NC(=O)C(c3ccccc3)c3ccccc3)cc2)cc1C` [compound 1433], the “Average Number of hTERT Transcripts” value in data set [1] turned out to be 45.43. Further, in the data set on viable cells in culture, the “Average Cell Viability after 24 Hours (% DMSO)” value was 75.77 % DMSO.

On to `CC(=O)C1=C(C)NC(SCC(=O)Nc2sc3c(c2C#N)CCCC3)=C(C#N)C1c1ccc(Cl)cc1` (centres unmarked) [compound 1434], for which, in data set [1], the “Average Number of hTERT Transcripts” value worked out at 25.17. The “Average Cell Viability after 24 Hours (% DMSO)” value in the data set with viable cells in culture worked out at 72.00 % DMSO.
